Test results published in publication PMC9964544, “Evidence of Insulin-Sensitizing and Mimetic Activity of the Sesquiterpene Quinone Avarone, a Protein Tyrosine Phosphatase 1B and Aldose Reductase Dual Targeting Agent from the Marine Sponge Dysidea avara” (Pharmaceutics, 2023).
Where two headings read alike, the source gives them in different places.

What was measured:
Human PTP1B [1] = target: T1, Human PTP1B (Homo sapiens, UniProt P18031); parameters: polyHis (N); made in house; details: cited from earlier work; for IC50: IC50 ± SD
T1 sequence (P18031 1-302): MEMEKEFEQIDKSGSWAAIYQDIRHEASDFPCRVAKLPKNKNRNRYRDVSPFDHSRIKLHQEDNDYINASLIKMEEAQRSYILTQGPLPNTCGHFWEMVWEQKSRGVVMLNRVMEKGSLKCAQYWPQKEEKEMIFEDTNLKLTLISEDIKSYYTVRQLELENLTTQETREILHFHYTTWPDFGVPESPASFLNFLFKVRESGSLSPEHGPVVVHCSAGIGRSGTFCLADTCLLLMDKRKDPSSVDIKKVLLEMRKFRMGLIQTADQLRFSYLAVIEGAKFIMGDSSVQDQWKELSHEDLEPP

human recombinant AKR1B1 [2] = target: T2, human recombinant AKR1B1 (Homo sapiens, UniProt P15121); test: AKR1B1 inhibition assay with L-idose as substrate, NADPH oxidation (IC50); format: biochemical; details: 10 mU AKR1B1, 1.6 mM L-idose, 37 °C; IC50 ± SD
T2 construct: made in house
Protocol: (§1) The purification of human recombinant AKR1B1 was performed as previously described. […] The purified enzyme, stored at −80 °C in 10 mM sodium phosphate buffer pH 7.0 containing 2 mM DTT and 30% (w/v) glycerol, was extensively dialyzed against 10 mM sodium phosphate buffer pH 7.0 before use. […] The fractions containing PTP1B were collected, concentrated, and injected into a Superdex G75 column equilibrated with Tris-HCl buffer pH 8.0 containing 150 mM NaCl and 1 mM mercaptoethanol. The fractions containing PTP1B were collected and concentrated; the purity of preparation was evaluated using SDS-PAGE. The PTP1B preparation was split into fractions of 0.5 mL volume; each fraction was stored at −80 °C.
(§2) The standard assay mixture (final volume 0.7 mL) was contained in 0.25 M sodium phosphate buffer pH 6.8, 0.18 mM NADPH, 0.4 M ammonium sulfate, 0.5 mM EDTA, and 4.7 mM GAL. One unit of enzyme activity is the amount of enzyme that catalyzes the conversion of 1 µmol of substrate/min in the above assay conditions. The same assay conditions were adopted in the inhibition studies using L-idose as the substrate at the indicated concentrations. PTP1B activity was determined using p-nitrophenylphosphate (pNPP) as the synthetic substrate. The pNPP was dissolved in 0.075 M ββ-dimethylglutarate buffer, pH 7.0, containing 1 mM dithiothreitol. Each assay was carried out at 37 °C in 1 mL of assay buffer. The reactions were started by diluting an aliquot of PTP1B preparation in the assay buffer; after 30 min, the reactions were stopped by adding 2 mL of 0.2 M KOH solution. The amount of p-nitrophenol released was determined spectrophotometrically, reading the absorbance of solutions at 400 nm (ε400nm = 18 mM^−^1cm^−^1).

Human PTP1B [3] = target: T1, Human PTP1B; test: PTP1B inhibition assay with pNPP as substrate (IC50); format: biochemical; parameters: polyHis (N); made in house; details: 2.5 mM pNPP, 37 °C; IC50 ± SD
Protocol: as §1, §2

C2C12 cells [4] = test: Glucose uptake assay (2-NBDG, flow cytometry) in C2C12 cells; format: cell-based; details: 2 h 10 mM cytochalasin B
Protocol: To evaluate the impact of avarone (2) on the insulin signaling pathway, C2C12 cells were plated on P35 dishes and grown until 70% confluence. Then, cells were washed with phosphate-buffered saline (PBS) and incubated for 24 h in the presence of a starvation medium (DMEM high glucose containing 2 mM glutamine, 100 U/mL of penicillin, and 100 μg/mL of streptomycin). After this time, cells were stimulated for 30 min with 10 nM insulin (Humulin R, Ely Lilly, Italy) with avarone (2) or the insulin-avarone combination. After this time, cells were washed with cold PBS and lysed using 100 µL of 1X Laemmli sample buffer solution (50 mM Tris-HCl pH 6.8, 2% SDS, 10% glycerol, 1% β-mercaptoethanol, 12.5 mM EDTA, 0.02% bromophenol blue). Cell proteins were withdrawn, transferred in an Eppendorf tube and boiled for 5 min. All samples were stored at −20 °C before the analysis. Analysis of samples was carried out using SDS-PAGE; after electrophoresis, proteins were transferred on a PVDF membrane by Western blot. Phosphorylation levels of the insulin receptor β chain and of the kinase Akt were evaluated using specific antibodies: IR β subunit, clone CT-3 (MABS65) was from Santa Cruz Biotechnology (Santa Cruz, CA, USA); pIR β subunit, Y1162/1163 (sc-25103-R) was from Merck-Millipore (Burlington, MA, USA). Akt (9272S) and p-Akt (9271S) antibodies were from Cell Signaling Technology (Danvers, MA, USA). Finally, β-actin and clone C-4 (sc-47778) were from Merck-Millipore (Burlington, MA, USA). Anti-rabbit and anti-mouse secondary antibodies were from Santa Cruz Biotechnology (Santa Cruz, CA, USA). Detection was performed using Clarity western ECL substrates (BioRad Laboratories, Inc. 1000 Alfred Nobel DriveHercules, CA, USA). Quantitation of the images obtained was carried out using iBright Analysis Software (Thermo Fisher Scientific 168 Third Avenue Waltham, MA, USA, 02451). Glucose uptake was evaluated as previously described. […] Intrinsic and 2-NBDG-derived cell fluorescences were determined using a flow cytometer (FACSCanto II, BD Biosciences, San Jose, CA, USA). […] Quantitative analysis was carried out using FlowJo software (FlowJo^TM v10. BD FlowJo™ Software for Windows Version 10. Ashland, OR: Becton, Dickinson and Company; 2021).
Figure 8 Glucose uptake assay. […] After, cells were washed with PBS, detached using trypsin, collected by centrifugation, and analyzed using a flow cytometer (FACSCanto II, BD Biosciences). […] For each experiment, 10,000 events were analyzed. […] (B) Quantitation of fluorescence levels. […]
Figure 9 Impact of cytochalasin B on avarone-induced glucose uptake. […] After, cells were washed and incubated for 3 h with 40 µM 2-NBDG and then analyzed using a flow cytometer (FACSCanto II, BD Biosciences). For each experiment, 10,000 events were analyzed. […]

C2C12 cells [5] = test: Seahorse XFe96 Mito Stress Test in C2C12 cells; format: cell-based; details: affecting maximal respiration and ATP production-linked oxygen consumption
Protocol: C2C12 cells (3 × 10^4 cells/well) were placed in XFe96 cell culture plates. After 24 h of incubation at 37 °C, cell growth medium was substituted with an XF base medium supplemented with 2 mM glutamine, 1 mM sodium pyruvate, and 10 mM glucose, pH 7.4. The plate was then transferred in a non-CO2 incubator for 1 h at 37 °C to pre-equilibrate the cells before analysis. An XF Mito Stress Test was performed to assay the cells’ ability to exploit mitochondrial oxidative metabolism, according to the manufacturer’s instructions. The oxygen consumption rate (OCR) was evaluated after the injection of a sequence of compounds that interfere with the electron transport chain: oligomycin (1 μM), carbonyl cyanide-4 (trifluoromethoxy) phenylhydrazone (FCCP) (1 μM), and Rotenone/Antimycin A (0.5 μM). All data were normalized on the protein content of each well.
Figure 10 Results of Mito Stress Test assay. (A) C2C12 cells were subjected to Seahorse XFe96-Mito Stress Test analysis to evaluate oxygen consumption rate (OCR) in real time. OCR values were normalized on protein content. (B) Basal respiration, ATP-linked OCR, spare capacity, maximal respiration, and proton leak were calculated using data obtained from OCR plot after the administration of the adenosine triphosphate ATP synthase inhibitor oligomycin, the proton uncoupler carbonylcyanide p-trifluoromethoxyphenylhydrazone (FCCP), and the combination of the respiratory complex I inhibitor rotenone and the respiratory complex III inhibitor antimycin A. Each point reported in the OCR plot represents the medium value ± SEM obtained from independent replicates (n = 3 or 4). One-way ANOVA with Dunnett’s correction was used to assess differences in experimental features by using Prism 8 software (GraphPad). Statistical significance is annotated as follows: * p ≤ 0.01, ** p ≤ 0.001, *** p ≤ 0.0001, (t-test); ns, not significant; FC, fold change.

human recombinant AKR1B1 [6] = target: T2, human recombinant AKR1B1; parameters: method as in Demir et al. [17]; details: ref Demir et al. [17]; cited from earlier work
3T3-L1 cells = system: 3T3-L1 cells; parameters: method as in PMID 19262557, PMID 19091557; details: ref [24],[27]; cited from earlier work

## 21-dehydroxybolinaquinone [21-dehydroxybolinaquinone (6)]
Human PTP1B [1]; ref Li et al. [27]
  IC50: 39.5 µM

## CNC1=CC(=O)C=C(C[C@]2(C)[C@@H](C)CC[C@]3(C)C(C)=CCC[C@@H]23)C1=O [3-methylaminoavarone (3), 3-(methylamino)avarone]
Human recombinant AKR1B1 [2]
  IC50: 73 ± 15 µM
Human PTP1B [3]
  IC50: 15.2 ± 2.1 µM

## CNC1=CC(=O)C(C[C@]2(C)[C@@H](C)CC[C@]3(C)C(C)=CCC[C@@H]23)=CC1=O [4-methylaminoavarone (4), 4-(methylamino)avarone]
Human recombinant AKR1B1 [2]
  IC50: 62 ± 8 µM
Human PTP1B [3]
  IC50: 21.6 ± 1 µM

## C=C1[C@@H](C)[C@H]2[C@H](Cc3ccccc3)NC(=O)[C@]23OC(=O)/C=C/[C@H](O)CCC[C@@H](C)C/C=C/[C@H]3[C@@H]1O [Cytochalasin B, cytochalasin B, reference compound]
C2C12 cells [4]; then 10 nM insulin 30 min
  effect of preincubation on insulin-stimulated glucose uptake: strongly affects insulin-stimulated glucose uptake
C2C12 cells [4]; then 25 µM avarone 30 min
  effect of preincubation on avarone-mediated glucose uptake: abolishes the avarone-mediated glucose uptake

## N#C/C(=C\c1cn(-c2ccccc2)c2ccccc12)C(=O)O [UK5099, reference compound]
C2C12 cells [5]
  mitochondrial respiration (OCR): significant reduction in mitochondrial respiration

## CC1=CCC[C@H]2[C@](C)(Cc3cc(O)ccc3O)[C@@H](C)CC[C@]12C [avarol (1), avarol]
Human recombinant AKR1B1 [2]
  IC50: 0.52 ± 0.19 µM
Human PTP1B [3]
  IC50: 42.2 ± 18 µM

## O=C1C=CC(=O)C=C1 [p-benzoquinone]
Human recombinant AKR1B1 [6]
  IC50: 1.93 µM
Human PTP1B [1]; ref Zhang et al. [24]
  IC50: 38.9 ± 5.2 µM

## dysidine [dysidine (5)]
3T3-L1 cells
  glucose uptake in 3T3-L1 cells: increase glucose uptake
Human PTP1B [1]; ref Li et al. [27]
  IC50: 6.7 ± 0.1 µM
Human PTP1B [1]; ref [24],[27]
  selectivity over other PTPs (TC-PTP and CD45): moderate selectivity
  type of PTP1B inhibition: reversible slow-binding PTP1B inhibitor
